Test [1] deals with T1, human thyroid receptor beta ligand-binding domain (LBD) (Homo sapiens, UniProt P10828).
T1 construct: purchased Invitrogen
T1 sequence (P10828 217-461 limits assumed): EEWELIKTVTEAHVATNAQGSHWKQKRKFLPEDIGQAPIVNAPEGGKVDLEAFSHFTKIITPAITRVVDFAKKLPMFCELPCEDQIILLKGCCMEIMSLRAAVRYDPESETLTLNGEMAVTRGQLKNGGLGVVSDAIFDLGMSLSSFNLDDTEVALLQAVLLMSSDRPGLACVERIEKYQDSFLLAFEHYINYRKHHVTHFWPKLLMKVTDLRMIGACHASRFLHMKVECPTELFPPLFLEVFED
Kind of test: TR-FRET thyroid receptor beta coactivator assay (THR biochemical assay, Assay 1). As to conditions: for EC50: THR-beta, TR-FRET coactivator assay, read-out: Activity category Assay 1 (EC50, THR-beta agonist); for Emax: read-out: Activity category Assay 1 THRβ (Emax). The essentials: (§1)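 Agonist-driven coactivator recruitment measured by TR-FRET: terbium anti-GST antibody (2 nM) bound to GST-LBD of TRβ or TRα (1 nM final, stated for β), with fluorescein SRC2-2 peptide at 200 nM. Compounds at 1% DMSO. Read after 1 h, room temperature, protected from light.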
(In general: TR-FRET usually uses a lanthanide donor and a delayed reading to cut background.)

For test [2], the target named is T2, human thyroid receptor alpha ligand-binding domain (LBD) (Homo sapiens, UniProt P10827).
T2 construct: purchased Invitrogen
T2 sequence (P10827 163-410 isoform P10827-2 limits assumed, other chains not shown): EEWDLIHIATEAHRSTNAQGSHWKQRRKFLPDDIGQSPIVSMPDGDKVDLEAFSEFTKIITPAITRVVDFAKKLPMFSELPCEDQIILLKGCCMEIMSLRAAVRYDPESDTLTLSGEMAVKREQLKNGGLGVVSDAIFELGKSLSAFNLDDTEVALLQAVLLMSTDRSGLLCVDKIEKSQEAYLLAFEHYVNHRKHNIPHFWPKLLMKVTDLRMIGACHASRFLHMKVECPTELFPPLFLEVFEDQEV
Kind of test: TR-FRET thyroid receptor alpha coactivator assay (THR biochemical assay, Assay 1). The conditions noted are these: for EC50: Table 4, THR-alpha, read-out: Activity category Assay 1 (EC50, THR-alpha agonist activity); for Emax: read-out: Activity category Assay 1 THRα (Emax). The essentials: as §1

For test [3], the system named is CPT1A gene expression in Huh-7 cells. Kind of test: Huh-7 differential gene expression, CPT1A RT-qPCR (Assay 3). Format: cell-based. As to conditions: Table 6, Huh-7 cells, CPT1A, 24 hr treatment; for EC50: read-out: Activity category Assay 3 EC50; for Emax: read-out: Activity category Assay 3 Emax. The procedure, abridged: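 Huh-7 cells in DMEM with 10% resin-stripped (TH-depleted) FBS were treated 24 hr with compounds at 0.1% DMSO, in biological duplicates. CPT1A mRNA was measured by TaqMan RT-qPCR against ACTB and TFG and quantified by 2-ΔΔCt. EC50 and Emax came from four-parameter logistic fits with no top constraint.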
In general terms: In qPCR the cycle at which signal appears reflects the starting amount.

The source of these data is patent US12180192B2, “Modulators of THR-β and methods of use thereof” (ALIGOS THERAPEUTICS, INC., priority 2019, dated 2024).

Molecules are shown by their SMILES. Read-outs that look alike come from different tables or passages of the source.

On to `Nc1nn(-c2cc(Cl)c(Oc3cc(C4CC5(CCC5)C4)c(=O)[nH]n3)c(Cl)c2)c(=O)[nH]c1=O` [Compound 94], for which the EC50 lay in the range of 50 to 250 nM in test [1]; 250 to 1000 nM in test [2]; 100 to 1000 nM in test [3] (Homo sapiens, Huh-7, 24 h). In addition, the Emax in test [1] (Table 5, Assay 1, THRβ) was < 50%; in test [2] (Table 5, THRα) it was < 50%; in test [3] (Homo sapiens, Huh-7, 24 h), 50 to 75%.

As to `CC(C)c1n[nH]c2nnc(Oc3c(Cl)cc(-n4nc(C#N)c(=O)[nH]c4=O)cc3Cl)cc12` [Compound 75A, 2-(3,5-Dichloro-4-((3-isopropyl-1H-pyrazolo[3,4-c]pyridazin-5-yl)oxy)phenyl)-3,5-dioxo-2,3,4,5-tetrahydro-1,2,4-triazine-6-carbonitrile], the EC50 in test [1] was < 50 nM; in test [2], 50 to 250 nM; in test [3] (Homo sapiens, Huh-7, 24 h) it was > 100 nM. Besides, the Emax in test [1] (Table 5, Assay 1, THRβ) was 50 to 75%; in test [2] (Table 5, THRα) it was < 50%; in test [3] (Homo sapiens, Huh-7, 24 h), > 75%.

With `Cc1cc(-n2ncc(=O)[nH]c2=O)cc(C)c1Cc1ccc2[nH]cc(C(C)C)c2n1` [Compound 54, 2-[4-[(3-isopropyl-1H-pyrrolo[3,2-b]pyridine-5-yl)methyl]-3,5-dimethyl-phenyl]-1,2,4-triazine-3,5-dione], the EC50 in test [1] is < 50 nM; in test [2] it was < 50 nM; in test [3] (Homo sapiens, Huh-7, 24 h) it was < 100 nM. In addition, the Emax in test [1] (Table 5, Assay 1, THRβ) was 50 to 75%; in test [2] (Table 5, THRα), < 50%; in test [3] (Homo sapiens, Huh-7, 24 h), > 75%.

On to `CC(C)c1c[nH]c2ccc(Oc3c(Cl)cc(-n4nc(C#N)c(=O)[nH]c4=O)cc3Cl)nc12` [Compound 18], for which the EC50 in test [1] is < 50 nM; in test [2] it was > 25000 nM; in test [3] (Homo sapiens, Huh-7, 24 h), > 100 nM. The Emax in test [1] (Table 5, Assay 1, THRβ) was < 50%; in test [2] (Table 5, THRα) it was < 50%; in test [3] (Homo sapiens, Huh-7, 24 h) it was > 75%.

Take `Cc1cc(-n2nc(N)c(=O)[nH]c2=O)cc(C)c1Cc1ccc(O)c(-c2ccccc2)n1` [Compound 43, 6-amino-2-[4-[(5-hydroxy-6-phenylpyridin-2-yl)-methyl]-3,5-dimethylphenyl]-4H-1,2,4-triazine-3,5-dione]: the EC50 in test [1] is < 50 nM; in test [2] it was < 50 nM; in test [3] (Homo sapiens, Huh-7, 24 h) it was < 100 nM. Besides, the Emax was > 75% in test [1] (Table 5, Assay 1, THRβ); > 75% in test [2] (Table 5, THRα); > 75% in test [3] (Homo sapiens, Huh-7, 24 h).

As to `CC1(C)CC(c2cc(Oc3c(Cl)cc(-n4nc(N)c(=O)[nH]c4=O)cc3Cl)n[nH]c2=O)C1` [Compound 89, 6-Amino-2-(3,5-dichloro-4-((5-(3,3-dimethylcyclobutyl)-6-oxo-1,6-dihydropyridazin-3-yl)oxy)phenyl)-1,2,4-triazine-3,5(2H,4H)-dione], the EC50 in test [1] is < 50 nM; in test [2] it was 250 to 1000 nM; in test [3] (Homo sapiens, Huh-7, 24 h), 100 to 1000 nM. Also, the Emax was < 50% in test [1] (Table 5, Assay 1, THRβ); < 50% in test [2] (Table 5, THRα); > 75% in test [3] (Homo sapiens, Huh-7, 24 h).

As to `Cc1cccc(-c2cc(Oc3c(Cl)cc(-n4nc(N)c(=O)[nH]c4=O)cc3Cl)n[nH]c2=O)c1` [Compound 70, 6-Amino-2-(3,5-dichloro-4-((6-oxo-5-(m-tolyl)-1,6-dihydropyridazin-3-yl)oxy)phenyl)-1,2,4-triazine-3,5(2H,4H)-dione], the EC50 in test [1] was < 50 nM; in test [2], 50 to 250 nM; in test [3] (Homo sapiens, Huh-7, 24 h), < 100 nM. The Emax in test [1] (Table 5, Assay 1, THRβ) is < 50%; in test [2] (Table 5, THRα) it was < 50%; in test [3] (Homo sapiens, Huh-7, 24 h), 50 to 75%.

Turning to `CC(C)c1c[nH]c2nnc(Oc3c(Cl)cc(-n4nc(C#N)c(=O)[nH]c4=O)cc3Cl)cc12` [Compound 52, 2-[3,5-dichloro-4-([5-isopropyl-7H-pyrrolo[2,3-c]pyridazin-3-yl]oxy)phenyl]-3,5-dioxo-4H-1,2,4-triazine-6-carbonitrile], the half-maximal effective concentration (EC50) in test [1] is 50 to 250 nM; in test [2] it was 1000 to 25000 nM; in test [3] (Homo sapiens, Huh-7, 24 h), > 100 nM. Further, the Emax was < 50% in test [1] (Table 5, Assay 1, THRβ); < 50% in test [2] (Table 5, THRα); > 75% in test [3] (Homo sapiens, Huh-7, 24 h).

`Nc1nn(-c2cc(Cl)c(Oc3n[nH]c(=O)cc3-c3ccc4c(c3)CCCO4)c(Cl)c2)c(=O)[nH]c1=O` [Compound 115]: the EC50 in test [1] was 50 to 250 nM; in test [2], > 25000 nM; in test [3] (Homo sapiens, Huh-7, 24 h) it was > 100 nM. The Emax was < 50% in test [1] (Table 5, Assay 1, THRβ); < 50% in test [2] (Table 5, THRα); > 75% in test [3] (Homo sapiens, Huh-7, 24 h).

Take `Cc1cc(-n2nc(N)c(=O)[nH]c2=O)cc(C)c1Cc1cc2c(C(C)C)c[nH]c2cn1` [Compound 157, 6-amino-2-[4-[(3-isopropyl-1H-pyrrolo[2,3-c]pyridin-5-yl)methyl]-3,5-dimethyl-phenyl]-1,2,4-triazine-3,5-dione]: the EC50 is < 50 nM in test [1]; 250 to 1000 nM in test [2]; < 100 nM in test [3] (Homo sapiens, Huh-7, 24 h). The Emax was > 75% in test [1] (Table 5, Assay 1, THRβ); 50 to 75% in test [2] (Table 5, THRα); > 75% in test [3] (Homo sapiens, Huh-7, 24 h).

As to `CC(C)c1cc(=O)[nH]c2ccc(Oc3c(Cl)cc(-n4nc(N)c(=O)[nH]c4=O)cc3Cl)cc12` [Compound 146, 6-amino-2-[3,5-dichloro-4-[(4-isopropyl-2-oxo-1H-quinolin-6-yl)oxy]phenyl]-1,2,4-triazine-3,5-dione], the EC50 was < 50 nM in test [1]; 50 to 250 nM in test [2]; 100 to 1000 nM in test [3] (Homo sapiens, Huh-7, 24 h). The Emax in test [1] (Table 5, Assay 1, THRβ) was < 50%; in test [2] (Table 5, THRα), < 50%; in test [3] (Homo sapiens, Huh-7, 24 h), > 75%.

Consider `Nc1nn(-c2cc(Cl)c(Oc3cc(C45CCC(C4)C5)c(=O)[nH]n3)c(Cl)c2)c(=O)[nH]c1=O` [Compound 101], for which the EC50 in test [1] is 50 to 250 nM; in test [2] it was 250 to 1000 nM; in test [3] (Homo sapiens, Huh-7, 24 h) it was < 100 nM. Further, the Emax in test [1] (Table 5, Assay 1, THRβ) is < 50%; in test [2] (Table 5, THRα) it was < 50%; in test [3] (Homo sapiens, Huh-7, 24 h), < 50%.

In the case of `Cc1ccc(-c2cc(Oc3c(Cl)cc(-n4nc(N)c(=O)[nH]c4=O)cc3Cl)n[nH]c2=O)cc1C` [Compound 112], the EC50 in test [1] was in the range of 50 to 250 nM; in test [2], 250 to 1000 nM; in test [3] (Homo sapiens, Huh-7, 24 h) it was 100 to 1000 nM. For the same molecule, the Emax in test [1] (Table 5, Assay 1, THRβ) is < 50%; in test [2] (Table 5, THRα) it was < 50%; in test [3] (Homo sapiens, Huh-7, 24 h), > 75%.

As to `CC(c1cc(Oc2c(Cl)cc(-n3nc(N)c(=O)[nH]c3=O)cc2Cl)n[nH]c1=O)C1CC(F)(F)C1` (single isomer, unassigned) [Compound 61-B, 6-amino-2-[3,5-dichloro-4-([5-[1-(3,3-difluorocyclobutyl)ethyl]-6-oxo-1H-pyridazin-3-yl]oxy)phenyl]-4H-1,2,4-tri-azine-3,5-dione], the EC50 in test [1] was 50 to 250 nM; in test [2] it was 1000 to 25000 nM; in test [3] it was > 100 nM. Moreover, the “Activity category Assay 1 THRβ (Emax)” value in test [1] (Table 5, Assay 1, THRβ) is “C (Emax<50%)”. Moreover, the “Activity category Assay 1 THRα (Emax)” value in test [2] (Table 5, THRα) is reported as “C (Emax<50%)”. In test [3], the “Activity category Assay 3 Emax” value was “A (Emax≥75%)”.

As usually defined, the EC50 is the concentration that produces a half-maximal response. For orientation: Emax means the maximal effect, on the per cent scale that the assay sets.
